Measured values taken from patent US11178873B2, “Cyclic N-carboxamide compounds useful as herbicides” (FMC CORPORATION, priority 2015, dated 2021).

Tests used:
Type in all cases: in vivo
[1] = tested on: wheat (Triticum aestivum); assay: Test A postemergence, wheat; details: 0 to 100 scale, 0 no effect, 100 complete control
Excerpt: (§1) Seeds of plant species selected from barnyardgrass (Echinochloa crus-galli), crabgrass, large (large crabgrass, Digitaria sanguinalis), kochia (Kochia scoparia), ragweed (common ragweed, Ambrosia elatior), morningglory (Ipomoea spp.), velvetleaf (Abutilon theophrasti), ryegrass, Italian (Italian ryegrass, Lolium multiflorum), foxtail, giant (giant foxtail, Setaria faberii), wheat (Triticum aestivum), corn (Zea mays), and pigweed (Amaranthus retroflexus), were planted into a blend of loam soil and sand and treated preemergence with a directed soil spray using test chemicals formulated in a non-phytotoxic solvent mixture which included a surfactant. At the same time, plants selected from these crop and weed species and also blackgrass (Alopecurus myosuroides), and galium (catchweed bedstraw, Galium aparine), were planted in pots containing the same blend of loam soil and sand and treated with postemergence applications of test chemicals formulated in the same manner. Plants ranged in height from 2 to 10 cm and were in the one- to two-leaf stage for the postemergence treatment. Treated plants and untreated controls were maintained in a greenhouse for approximately 10 d, after which time all treated plants were compared to untreated controls and visually evaluated for injury. Plant response ratings, summarized in Table A, are based on a 0 to 100 scale where 0 is no effect and 100 is complete control. A dash (-) response means no test result.

[2] = tested on: barnyardgrass (Echinochloa crus-galli); assay: Test A postemergence, barnyardgrass; details: 0 to 100 scale, 0 no effect, 100 complete control
Excerpt: as §1

[3] = tested on: ragweed (common ragweed, Ambrosia elatior); assay: Test A postemergence, ragweed; details: 0 to 100 scale, 0 no effect, 100 complete control
Excerpt: as §1

[4] = tested on: foxtail, giant (giant foxtail, Setaria faberii); assay: Test A postemergence, foxtail, giant; details: 0 to 100 scale, 0 no effect, 100 complete control
Excerpt: as §1

[5] = tested on: foxtail, giant (giant foxtail, Setaria faberii); assay: Test A preemergence, foxtail, giant; details: 0 to 100 scale, 0 no effect, 100 complete control
Excerpt: as §1

[6] = tested on: kochia (Kochia scoparia); assay: Test A preemergence, kochia; details: 0 to 100 scale, 0 no effect, 100 complete control
Excerpt: as §1

[7] = tested on: ryegrass, Italian (Italian ryegrass, Lolium multiflorum); assay: Test A postemergence, ryegrass, Italian; details: 0 to 100 scale, 0 no effect, 100 complete control
Excerpt: as §1

[8] = tested on: barnyardgrass (Echinochloa crus-galli); assay: Test B flooded paddy test, barnyardgrass; details: Flood, scale 0 to 100 (0 no effect, 100 complete control), 13 to 15 d
Experimental: (§2) Plant species in the flooded paddy test selected from rice (Oryza sativa), sedge, umbrella (small-flower umbrella sedge, Cyperus difformis), ducksalad (Heteranthera limosa), and barnyardgrass (Echinochloa crus-galli) were grown to the 2-leaf stage for testing. At time of treatment, test pots were flooded to 3 cm above the soil surface, treated by application of test compounds directly to the paddy water, and then maintained at that water depth for the duration of the test. Treated plants and controls were maintained in a greenhouse for 13 to 15 d, after which time all species were compared to controls and visually evaluated. Plant response ratings, summarized in Table B, are based on a scale of 0 to 100 where 0 is no effect and 100 is complete control. A dash (-) response means no test result.

[9] = tested on: blackgrass (Alopecurus myosuroides); assay: Test A postemergence, blackgrass; details: 0 to 100 scale, 0 no effect, 100 complete control
Excerpt: as §1

[10] = tested on: sedge, umbrella (small-flower umbrella sedge, Cyperus difformis); assay: Test B flooded paddy test, sedge, umbrella; details: Flood, scale 0 to 100 (0 no effect, 100 complete control), 13 to 15 d
Experimental: as §2

[11] = tested on: pigweed (Amaranthus retroflexus); assay: Test A postemergence, pigweed; details: 0 to 100 scale, 0 no effect, 100 complete control
Excerpt: as §1

[12] = tested on: ryegrass, Italian (Italian ryegrass, Lolium multiflorum); assay: Test A preemergence, ryegrass, Italian; details: 0 to 100 scale, 0 no effect, 100 complete control
Excerpt: as §1

[13] = tested on: ducksalad (Heteranthera limosa); assay: Test B flooded paddy test, ducksalad; details: Flood, scale 0 to 100 (0 no effect, 100 complete control), 13 to 15 d
Experimental: as §2

[14] = tested on: pigweed (Amaranthus retroflexus); assay: Test A preemergence, pigweed; details: 0 to 100 scale, 0 no effect, 100 complete control
Excerpt: as §1

[15] = tested on: ragweed (common ragweed, Ambrosia elatior); assay: Test A preemergence, ragweed; details: 0 to 100 scale, 0 no effect, 100 complete control
Excerpt: as §1

[16] = tested on: rice (Oryza sativa); assay: Test B flooded paddy test, rice; details: Flood, scale 0 to 100 (0 no effect, 100 complete control), 13 to 15 d
Experimental: as §2

[17] = tested on: galium (catchweed bedstraw, Galium aparine); assay: Test A postemergence, galium; details: 0 to 100 scale, 0 no effect, 100 complete control
Excerpt: as §1

[18] = tested on: corn (Zea mays); assay: Test A postemergence, corn; details: 0 to 100 scale, 0 no effect, 100 complete control
Excerpt: as §1

[19] = tested on: kochia (Kochia scoparia); assay: Test A postemergence, kochia; details: 0 to 100 scale, 0 no effect, 100 complete control
Excerpt: as §1

[20] = tested on: barnyardgrass (Echinochloa crus-galli); assay: Test A preemergence, barnyardgrass; details: 0 to 100 scale, 0 no effect, 100 complete control
Excerpt: as §1

| Structure (SMILES) | Plant response rating, Wheat ([1]; 125 g ai/ha) | Plant response rating, Wheat ([1]; 500 g ai/ha) | Plant response rating, Barnyardgrass ([2]; 125 g ai/ha) | Plant response rating, Barnyardgrass ([2]; 500 g ai/ha) | Plant response rating, Ragweed ([3]; 125 g ai/ha) | Plant response rating, Ragweed ([3]; 500 g ai/ha) | Plant response rating, Foxtail, Giant ([4]; 125 g ai/ha) | Plant response rating, Foxtail, Giant ([4]; 500 g ai/ha) | Plant response rating, Foxtail, Giant ([5]; 125 g ai/ha) | Plant response rating, Foxtail, Giant ([5]; 500 g ai/ha) | Plant response rating, Kochia ([6]; 125 g ai/ha) | Plant response rating, Kochia ([6]; 500 g ai/ha) | Plant response rating, Ryegrass, Italian ([7]; 125 g ai/ha) | Plant response rating, Ryegrass, Italian ([7]; 500 g ai/ha) | Plant response rating, Blackgrass ([9]; 125 g ai/ha) | Plant response rating, Blackgrass ([9]; 500 g ai/ha) | Plant response rating, Pigweed ([11]; 125 g ai/ha) | Plant response rating, Pigweed ([11]; 500 g ai/ha) | Plant response rating, Ryegrass, Italian ([12]; 125 g ai/ha) | Plant response rating, Ryegrass, Italian ([12]; 500 g ai/ha) | further results |
| --- | --- | --- | --- | --- | --- | --- | --- | --- | --- | --- | --- | --- | --- | --- | --- | --- | --- | --- | --- | --- | --- |
| O=C1NCC(c2ccccc2)N1C(=O)Nc1ccccc1F (stereo not drawn) [Compound 5] | 0 | 0 | 0 | 0 | 0 | 0 | 0 | 0 | 0 | 0 | 0 | 0 | 0 | 0 | 0 | 0 | 0 | 0 | 0 | 0 | Plant response rating, Barnyardgrass ([8]; 1000 g ai/ha): 0; Plant response rating, Sedge, Umbrella ([10]; 1000 g ai/ha): 0; Plant response rating, Ducksalad ([13]; 1000 g ai/ha): 90; Plant response rating, Pigweed ([14]; 125 g ai/ha): 0; Plant response rating, Pigweed ([14]; 500 g ai/ha): 0; Plant response rating, Ragweed ([15]; 125 g ai/ha): 0; Plant response rating, Ragweed ([15]; 500 g ai/ha): 0; Plant response rating, Rice ([16]; 1000 g ai/ha): 0; Plant response rating, Galium ([17]; 125 g ai/ha): 0; Plant response rating, Galium ([17]; 500 g ai/ha): 0; Plant response rating, Corn ([18]; 125 g ai/ha): 0; Plant response rating, Corn ([18]; 500 g ai/ha): 0; Plant response rating, Kochia ([19]; 125 g ai/ha): 0; Plant response rating, Kochia ([19]; 500 g ai/ha): 0; Plant response rating, Barnyardgrass ([20]; 125 g ai/ha): 0; Plant response rating, Barnyardgrass ([20]; 500 g ai/ha): 0 |
| O=C1NCC(c2ccc(F)c(F)c2)N1C(=O)Nc1ccccc1 (stereo not drawn) [Compound 7] | 0 | 0 | 0 | 0 | 0 | 0 | 0 | 0 | 0 | 0 | 0 | 0 | 0 | 0 | 0 | 0 | 0 | 0 | 0 | 0 | Plant response rating, Barnyardgrass ([8]; 1000 g ai/ha): 0; Plant response rating, Sedge, Umbrella ([10]; 1000 g ai/ha): 0; Plant response rating, Ducksalad ([13]; 1000 g ai/ha): 0; Plant response rating, Pigweed ([14]; 125 g ai/ha): 0; Plant response rating, Pigweed ([14]; 500 g ai/ha): 0; Plant response rating, Ragweed ([15]; 125 g ai/ha): 0; Plant response rating, Ragweed ([15]; 500 g ai/ha): 0; Plant response rating, Rice ([16]; 1000 g ai/ha): 0; Plant response rating, Galium ([17]; 125 g ai/ha): 0; Plant response rating, Galium ([17]; 500 g ai/ha): 0; Plant response rating, Corn ([18]; 125 g ai/ha): 0; Plant response rating, Corn ([18]; 500 g ai/ha): 0; Plant response rating, Kochia ([19]; 125 g ai/ha): 0; Plant response rating, Kochia ([19]; 500 g ai/ha): 0; Plant response rating, Barnyardgrass ([20]; 125 g ai/ha): 0; Plant response rating, Barnyardgrass ([20]; 500 g ai/ha): 0 |
| O=C1NCC(c2ccc(F)c(F)c2)N1C(=O)Nc1ccccc1F (stereo not drawn) [Compound 8] | 0 | 0 | 0 | 0 | 0 | 0 | 0 | 0 | 0 | 0 | 0 | 0 | 0 | 0 | 0 | 0 | 0 | 0 | 0 | 0 | Plant response rating, Barnyardgrass ([8]; 500 g ai/ha): 0; Plant response rating, Sedge, Umbrella ([10]; 500 g ai/ha): 0; Plant response rating, Ducksalad ([13]; 500 g ai/ha): 40; Plant response rating, Pigweed ([14]; 125 g ai/ha): 0; Plant response rating, Pigweed ([14]; 500 g ai/ha): 0; Plant response rating, Ragweed ([15]; 125 g ai/ha): 0; Plant response rating, Ragweed ([15]; 500 g ai/ha): 0; Plant response rating, Rice ([16]; 500 g ai/ha): 0; Plant response rating, Galium ([17]; 125 g ai/ha): 0; Plant response rating, Galium ([17]; 500 g ai/ha): 0; Plant response rating, Corn ([18]; 125 g ai/ha): 0; Plant response rating, Corn ([18]; 500 g ai/ha): 0; Plant response rating, Kochia ([19]; 125 g ai/ha): 0; Plant response rating, Kochia ([19]; 500 g ai/ha): 0; Plant response rating, Barnyardgrass ([20]; 125 g ai/ha): 0; Plant response rating, Barnyardgrass ([20]; 500 g ai/ha): 0 |
